Experimental data taken from patent publication US20050202010A1, “Method of treatment and bioassay involving macrophage migration inhibitory factor (MIF) as cardiac-derived myocardial depressant factor” (priority 2003, published 2005).

Experiments:
LPS stimulated monocytes = conditions: cited from earlier work
[1] = system: wild type mice challenged with LPS; assay: Tissue MIF release (western, immunohistochemistry) after LPS challenge, Enbrel pre-treatment; assay type: in vivo, mouse
Experimental: (§1) Louis, Mo.) and sacrificed by CO2 asphyxiation and subsequent cervical dislocation. Uninjected mice were used as controls. The two anti-MIF antibodies (III.D.9 and XIV.15.5, gift of Cytokine PharmaSciences, Inc., King of Prussia, Pa.) and their isotype control (HB-49, gift from Cytokine PharmaSciences, Inc.) were injected (100 μg in […]) intraperitoneally 90 minutes before the LPS challenge in the echocardiogram studies. […]
Protein Extraction and Western Blotting. […] Protein concentration was quantified using the Bio-Rad Protein Assay (Hercules, Calif.) and 50 μg of protein diluted in Laemmeli sample buffer (Bio-Rad) was added in a 1:1 ratio to a final volume of 10 μl and resolved on a 12% SDS polyacrylamide gel under reducing conditions. Prestained SDS-PAGE standards (Kaleidoscope Broad range, Bio-Rad Laboratories, Inc., Hercules, Calif.) were run (10 μl/lane) with each gel in order to determine the approximate M.W. of detected bands. […] The membrane was then developed for 5 minutes with 5 ml of ECL reagents (SuperSignal West Pico, Pierce, Rockford, Ill.), and the resulting chemiluminescent reaction was detected by Kodak X-OMAT AR Film (Eastman Kodak Co., Rochester, N.Y.). […]

[2] = system: wild type mice challenged with LPS; assay: Serum MIF levels (ELISA) after LPS challenge, Enbrel pre-treatment; assay type: in vivo, mouse; conditions: wild type mice pre-treated (60 minutes) with Enbrel, LPS 4 mg/kg
Experimental: as §1, with “Mice were injected intraperitoneally with 4 mg/kg E. coli 0111:B4 LPS (Sigma-Aldrich Corp., St. Louis,” for “Louis,”
Determination of serum MIF levels. Sera from six mice were assayed for mouse MIF using the Chemikine™ Rat/Mouse macrophage inhibitory factor (MIF) EIA kit (Chemicon International, Inc., Temecula, Calif.) according to the manufacturer's instructions. Briefly, 5 μl of standards, samples, or reaction buffer (blank) were added to each well in duplicate. Diluted MIF-HRP antibody conjugate was added to each well (100 μl) and allowed to incubate for 2 hours at room temperature. Wells were then washed five times, and TMB substrate (100 μl) was allowed to incubate in the dark for 30 minutes at room temperature. The stop reagent was added to each well, gently mixed, and the ELISA was read on an ELISA plate reader (EL 312e Microplate Reader, Bio-Tek Instruments, Winooski, Vt.) at 450 nm (630 nm background) within 30 minutes of completion of the assay. […]

Molecule	effect on MIF secretion (LPS stimulated monocytes)	further results
CCCN(CCC)S(=O)(=O)c1ccc(C(=O)O)cc1 [probenicide]	MIF secretion did not occur	
CC[C@@]1([C@@H]2O[C@@H]([C@H]3O[C@@](O)(CO)[C@H](C)C[C@@H]3C)C[C@@H]2C)CC[C@H]([C@]2(C)CC[C@]3(C[C@H](O)[C@@H](C)[C@@H]([C@@H](C)[C@@H](OC)[C@H](C)C(=O)O)O3)O2)O1 [monensin]	do not inhibit the secretion of MIF	
C[C@H]1CCC/C=C/[C@@H]2C[C@H](O)C[C@H]2[C@H](O)/C=C/C(=O)O1 [brefelding A]	do not inhibit the secretion of MIF	
Enbrel®		tissue release of MIF after LPS challenge ([1]; Enbrel given just immediately prior to or after LPS instead of 90 minutes prior (data not shown)): occurred sporatically; release of MIF from cardiac, liver and spleen tissue after LPS challenge ([1]; wild type mice pre-treated with Enbrel, western and immunohistochemistry): did not occur at any time; Maximum serum MIF levels [2]: ~2.3 fold baseline; time of maximum serum MIF levels [2]: 24 h
COc1ccc(Cl)cc1C(=O)NCCc1ccc(S(=O)(=O)NC(=O)NC2CCCCC2)cc1 [glyburide]	MIF secretion did not occur	
